Data as given in patent publication US8263610B2, “Substituted imidazolyl-5,6-dihydrobenzo[N]isoquinoline compounds” (ArQule, Inc., priority 2008, dated 2012).
Counter-ions that a name gives are not always drawn.

melting point	SMILES
270 to 271 °C	O=S(=O)(c1ccccc1)N1CCc2c(cnc3[nH]ncc23)C1
200 to 202 °C	S=C(Nc1ccccc1)N1CCc2c(cnc3[nH]ncc23)C1
105 to 107 °C	COc1ccc(CN2CCc3c(cnc4c3cnn4Cc3ccc(OC)cc3)C2)cc1
> 216 °C	O=C(Nc1ccccc1)NC1CCc2c(cnc3[nH]ncc23)C1 (centres unmarked)
> 300 °C	O=C(Nc1ccccc1)C1CCc2c(cnc3[nH]ncc23)C1 (centres unmarked)
96 to 102 °C	COc1ccc(Cn2ncc3c4c(cnc32)CNCC4)cc1
265 °C (dec.)	Cl.c1ccc(-c2n[nH]c3ncc4c(c23)CCNC4)cc1
> 115 °C	O=C(C(NCCO)c1ccccc1)N1CCc2c(cnc3[nH]nc(Br)c23)C1.O=C(O)C(F)(F)F (centres unmarked)
> 245 °C	Cl.O=C(C(c1ccccc1)N1CCNCC1)N1CCc2c(cnc3[nH]nc(Br)c23)C1 (centres unmarked)
> 100 °C	N[C@H](C(=O)N1CCc2c(cnc3[nH]ncc23)C1)c1ccccc1.O=C(O)C(F)(F)F
> 232 °C	c1ccc(CNC2CCc3c(cnc4[nH]ncc34)C2)cc1 (centres unmarked) (as salt: TFA)
> 225 °C	Clc1ccccc1C1Cc2cnc3[nH]nc(-c4cnn(C5CCNCC5)c4)c3c2-c2ccccc21 (centres unmarked) (as salt: TFA) [Example 19, 7-(2-chlorophenyl)-1-(1-piperidin-4-yl-1H-pyrazol-4-yl)-6,7-dihydro-3H-benzo[f]pyrazolo[3,4-c]isoquinoline]
> 164 °C	O=C(C(NCCc1c[nH]c2ccccc12)c1ccccc1)N1CCc2c(cnc3[nH]ncc23)C1 (centres unmarked) (as salt: TFA) [Example 84, N-(2-(1H-indol-3-yl)ethyl)-2-(8,9-dihydro-3H-pyrazolo[3,4-c][2,7]naphthyridin-7(6H)-yl)-2-oxo-1-phenylethanaminium 2,2,2-trifluoroacetate]
184 to 196 °C	CN(C)CCNC(=O)c1cccc(NC(=O)N2CCc3c(cnc4[nH]ncc34)C2)c1 (as salt: TFA) [Example 95, N-(3-(2-(dimethylamino)ethylcarbamoyl)phenyl)-8,9-dihydro-3H-pyrazolo[3,4-c][2,7]naphthyridine-7(6H)-carboxamide]
> 135 °C	O=C(NCc1ccccc1)c1cccc(NC(=O)N2CCc3c(cnc4[nH]ncc34)C2)c1 (as salt: TFA) [Example 96, N-[3-(benzylcarbamoyl)phenyl]-3,6,8,9-tetrahydro-7H-pyrazolo[3,4-c][2,7]naphthyridine-7-carboxamide]
300 to 302 °C	O=C(c1ccccc1)c1c[nH]c2ncnc(N3CCc4c(cnc5[nH]ncc45)C3)c12 (as salt: TFA) [Example 435, (4-(8,9-dihydro-3H-pyrazolo[3,4-c][2,7]naphthyridin-7(6H)-yl)-7H-pyrrolo[2,3-d]pyrimidin-5-yl)(phenyl)methanone]
230 to 231 °C	O=C(Nc1ccccc1)N1CCc2c(cnc3[nH]nc(C4=CCNCC4)c23)C1 (as salt: chloride)
240 °C (dec.)	NC(=O)c1cccc(-c2n[nH]c3ncc4c(c23)CCNC4)c1 (as salt: trifluoroacetate)
245 °C (dec.)	CC(=O)Nc1cccc(-c2n[nH]c3ncc4c(c23)CCNC4)c1 (as salt: trifluoroacetate) [Example 456, 1-(3-acetamidophenyl)-6,7,8,9-tetrahydro-3H-pyrazolo[3,4-c][2,7]naphthyridin-7-ium 2,2,2-trifluoroacetate]
> 65 °C	COc1ccc(Cn2ncc3c4c(cnc32)CC(NC(=O)c2ccccc2)CC4)cc1 (centres unmarked) [Compound 5, N-[3-(4-methoxybenzyl)-6,7,8,9-tetrahydro-3H-pyrazolo[3,4-c]isoquinolin-7-yl]benzamide]
136 to 138 °C	COc1ccc(Cn2ncc3c4c(cnc32)CN(S(=O)(=O)c2ccccc2)CC4)cc1 [Compound 6, 3-(4-methoxybenzyl)-7-(phenylsulfonyl)-6,7,8,9-tetrahydro-3H-pyrazolo[3,4-c][2,7]naphthyridine]
168 to 170 °C	Clc1ccc(C2Cc3cnc4[nH]ncc4c3-c3ccccc32)cc1Cl (centres unmarked) [Example 1, 7-(3,4-dichlorophenyl)-6,7-dihydro-3H-benzo[f]pyrazolo[3,4-c]isoquinoline]
143 to 145 °C	c1ccc(C2Cc3cnc4[nH]ncc4c3-c3ccccc32)cc1 (centres unmarked) [Example 2, 7-phenyl-6,7-dihydro-3H-benzo[f]pyrazolo[3,4-c]isoquinoline]

melting point	SMILES
195 to 196 °C	Fc1ccc(C2Cc3cnc4[nH]ncc4c3-c3ccccc32)cc1F (centres unmarked) [Example 3, 7-(3,4-difluorophenyl)-6,7-dihydro-3H-benzo[f]pyrazolo[3,4-c]isoquinoline]
88 to 91 °C	Clc1ccccc1C1Cc2cnc3[nH]ncc3c2-c2ccccc21 (centres unmarked) [Example 5, 7-(2-dichlorophenyl)-6,7-dihydro-3H-benzo[f]pyrazolo[3,4-c]isoquinoline]
167 to 169 °C	Fc1ccc(C2Cc3cnc4[nH]ncc4c3-c3ccccc32)cc1 (centres unmarked) [Example 6, 7-(4-fluorophenyl)-6,7-dihydro-3H-benzo[f]pyrazolo[3,4-c]isoquinoline]
152 to 155 °C	Cc1cc(C)c2c(c1)-c1c(cnc3[nH]ncc13)CC2 [Example 7, 8,10-dimethyl-6,7-dihydro-3H-benzo[f]pyrazolo[3,4-c]isoquinoline]
85 to 89 °C	COc1cccc2c1CCc1cnc3[nH]ncc3c1-2 [Example 8, 8-methoxy-6,7-dihydro-3H-benzo[f]pyrazolo[3,4-c]isoquinoline]
95 to 97 °C	COc1ccc2c(c1)-c1c(cnc3[nH]ncc13)CC2 [Example 9, 10-methoxy-6,7-dihydro-3H-benzo[f]pyrazolo[3,4-c]isoquinoline]
263 to 265 °C	c1cnc2c(c1)CCc1cnc3[nH]ncc3c1-2 [Example 10, 6,9-dihydro-5H-pyrazolo[3,4-k][1,8]phenanthroline]
214 to 217 °C	O=[N+]([O-])c1ccc2c(c1)-c1c(cnc3[nH]ncc13)CC2 [Example 14, 10-nitro-6,7-dihydro-3H-benzo[f]pyrazolo[3,4-c]isoquino line]
290 to 296 °C	O=c1ccc2c([nH]1)CCc1cnc3[nH]ncc3c1-2 [Example 15, 6,7-dihydro-3H-pyrazolo[4,3-a][3,7]phenanthrolin-9(8H)-one]
176 to 178 °C	Brc1n[nH]c2ncc3c(c12)-c1ccccc1C(c1ccccc1)C3 (centres unmarked) [Example 16, 1-bromo-7-phenyl-6,7-dihydro-3H-benzo[f]pyrazolo[3,4-c]isoquinoline]
139 to 141 °C	CC(C)(C)OC(=O)N1CCC(n2cc(-c3n[nH]c4ncc5c(c34)-c3ccccc3C(c3ccccc3Cl)C5)cn2)CC1 (centres unmarked) [Example 18, tert-butyl 4-(4-(7-(2-chlorophenyl)-6,7-dihydro-3H-benzo[f]pyrazolo[3,4-c]isoquinolin-1-yl)-1H-pyrazol-1-yl)piperidine-1-carboxylate]
215 to 217 °C	c1ccc2c(c1)NCCc1cnc3[nH]ncc3c1-2 [Example 29, 3,6,7,8-tetrahydropyrazolo[4′,3′:5,6]pyrido[3,4-d][1]benzazepine]
> 70 °C	CC(C)(C)OC(=O)N1CCc2c(cnc3[nH]ncc23)C1 [Example 76, tert-butyl 8,9-dihydro-3H-pyrazolo[3,4-c][2,7]naphthyridine-7(6H)-carboxylate]
> 65 °C	CC(C)(C)OC(=O)N1CCc2c(cnc3[nH]nc(Br)c23)C1 [Example 77, tert-butyl 1-bromo-8,9-dihydro-3H-pyrazolo[3,4-c][2,7]naphthyridine-7(6H)-carboxylate]
159 to 161 °C	CC(C)(C)OC(=O)N1CCN(C(C(=O)N2CCc3c(cnc4[nH]nc(Br)c34)C2)c2ccccc2)CC1 (centres unmarked) [Example 91, tert-butyl 4-(2-(1-bromo-8,9-dihydro-3H-pyrazolo[3,4-c][2,7]naphthyridin-7(6H)-yl)-2-oxo-1-phenylethyl)piperazine-1-carboxylate]
237 to 241 °C	O=C(O)c1cccc(NC(=O)N2CCc3c(cnc4[nH]ncc34)C2)c1 [Example 93b, 3-(6,7,8,9-tetrahydro-3H-pyrazolo[3,4-c][2,7]naphthyridine-7-carboxamido)benzoic acid]
> 215 °C	O=C(Nc1cccc(C(=O)N2CCC(n3c(=O)[nH]c4ccccc43)CC2)c1)N1CCc2c(cnc3[nH]ncc23)C1 [Example 94, N-(3-(4-(2-oxo-2,3-dihydro-1H-benzo[d]imidazol-1-yl)piperidine-1-carbonyl)phenyl)-8,9-dihydro-3H-pyrazolo[3,4-c][2,7]naphthyridine-7(6H)-carboxamide]
> 136 °C	COc1ccc(Cn2ncc3c4c(cnc32)CN(C(=O)Nc2cccc(C(=O)O)c2)CC4)cc1 [Example 153, 3-(3-(4-methoxybenzyl)-6,7,8,9-tetrahydro-3H-pyrazolo[3,4-c][2,7]naphthyridine-7-carboxamido)benzoic acid]
228 to 229 °C	O=S(=O)(NC1CCc2c(cnc3[nH]ncc23)C1)c1ccccc1 (centres unmarked) [Example 158, N-(6,7,8,9-tetrahydro-3H-pyrazolo[3,4-c]isoquinolin-7-yl)benzenesulfonamide]
184 to 186 °C	O=C(Nc1ccccc1)N1CCc2c(cnc3[nH]ncc23)C1 [Example 318, N-phenyl-8,9-dihydro-3H-pyrazolo[3,4-c][2,7]naphthyridine-7(6H)-carboxamide]
> 140 °C	O=C(Nc1ccccc1)N1CCc2cnc3[nH]ncc3c2-c2ccccc21 [Example 319, N-phenyl-6,7-dihydropyrazolo[4′,3′:5,6]pyrido[3,4-d][1]benzazepine-8(3H)-carboxamide]
> 155 °C	Cc1nc(-c2cccc(NC(=O)N3CCc4c(cnc5[nH]ncc45)C3)c2)cs1 [Example 401, N-(3-(2-methylthiazol-4-yl)phenyl)-8,9-dihydro-3H-pyrazolo[3,4-c][2,7]naphthyridine-7(6H)-carboxamide]
258 to 261 °C	Cc1nc(-c2cccc(NC(=O)N3CCc4c(cnc5[nH]nc(Br)c45)C3)c2)cs1 [Example 402, 1-bromo-N-(3-(2-methylthiazol-4-yl)phenyl)-8,9-dihydro-3H-pyrazolo[3,4-c][2,7]naphthyridine-7(6H)-carboxamide]

SMILES	melting point
O=C(O)C(F)(F)F.c1nc2[nH]ncc2c2c1CNCC2	224 to 227 °C
